The NIST ThermoML archive (doi:10.1016/j.fluid.2013.10.011)
Numbers after ± are expanded uncertainties.

Settings: Crystal; visual observation

Normal melting temperature: 99.50 ± 1.6 °C
SMILES: O=C(O)C[C@H](O)C(=O)O [l-hydroxysuccinic acid]
